According to US20240415914A1, “Water Dispersible Cannabinoid Compositions” (priority 2021, published 2024):

Experiment: Stability of cannabinoid and Vitamin E components of Beverage 1 (AB White) stored at 8° C. and 21-25° C., LCMSMS over 570 days
Assay type: physicochemical
Conditions: for Stability in AB White, 8° C. (content by LCMSMS): beverage stored at 8° C.; for Stability in AB White, 21-25° C. (content by LCMSMS): beverage stored at 21-25° C.
Protocol: The LCMSMS was calibrated for 0-1000 ng/ml cannabinoids with the same resin material used in the preparation of the concentrates. At each time period, 100 ml of beverage was diluted with 10 ml of methanol and injected into the LCMSMS for analysis.

CCCc1cc(O)c2c(c1)OC(C)(C)[C@@H]1CCC(C)=C[C@@H]21 [THCV, delta-9-tetrahydrocannabivarin]
Stability in AB White, 8° C. (content by LCMSMS) (day 0): 3.6 µg/mL | Stability in AB White, 8° C. (content by LCMSMS) (day 1): 3.54 µg/mL | Stability in AB White, 8° C. (content by LCMSMS) (day 2): 3.60 µg/mL | Stability in AB White, 8° C. (content by LCMSMS) (day 3): 3.55 µg/mL | Stability in AB White, 8° C. (content by LCMSMS) (day 5): 3.58 µg/mL | Stability in AB White, 8° C. (content by LCMSMS) (day 8): 3.60 µg/mL | Stability in AB White, 8° C. (content by LCMSMS) (day 9): 3.61 µg/mL | Stability in AB White, 8° C. (content by LCMSMS) (day 10): 3.58 µg/mL | Stability in AB White, 8° C. (content by LCMSMS) (day 11): 3.59 µg/mL | Stability in AB White, 8° C. (content by LCMSMS) (day 12): 3.50 µg/mL | Stability in AB White, 8° C. (content by LCMSMS) (day 15): 3.56 µg/mL | Stability in AB White, 8° C. (content by LCMSMS) (day 16): 3.57 µg/mL | Stability in AB White, 8° C. (content by LCMSMS) (day 17): 3.61 µg/mL | Stability in AB White, 8° C. (content by LCMSMS) (day 18): 3.59 µg/mL | Stability in AB White, 8° C. (content by LCMSMS) (day 19): 3.51 µg/mL | Stability in AB White, 8° C. (content by LCMSMS) (day 22): 3.60 µg/mL | Stability in AB White, 8° C. (content by LCMSMS) (day 23): 3.55 µg/mL | Stability in AB White, 8° C. (content by LCMSMS) (day 24): 3.56 µg/mL | Stability in AB White, 8° C. (content by LCMSMS) (day 25): 3.56 µg/mL | Stability in AB White, 8° C. (content by LCMSMS) (day 26): 3.63 µg/mL | Stability in AB White, 8° C. (content by LCMSMS) (day 29): 3.52 µg/mL | Stability in AB White, 8° C. (content by LCMSMS) (day 30): 3.59 µg/mL | Stability in AB White, 8° C. (content by LCMSMS) (day 60): 3.58 µg/mL | Stability in AB White, 8° C. (content by LCMSMS) (day 90): 3.56 µg/mL | Stability in AB White, 8° C. (content by LCMSMS) (day 120): 3.56 µg/mL | Stability in AB White, 8° C. (content by LCMSMS) (day 150): 3.55 µg/mL | Stability in AB White, 8° C. (content by LCMSMS) (day 180): 3.59 µg/mL | Stability in AB White, 8° C. (content by LCMSMS) (day 210): 3.44 µg/mL | Stability in AB White, 8° C. (content by LCMSMS) (day 240): 3.56 µg/mL | Stability in AB White, 8° C. (content by LCMSMS) (day 270): 3.47 µg/mL | Stability in AB White, 8° C. (content by LCMSMS) (day 300): 3.46 µg/mL | Stability in AB White, 8° C. (content by LCMSMS) (day 330): 3.52 µg/mL | Stability in AB White, 8° C. (content by LCMSMS) (day 360): 3.50 µg/mL | Stability in AB White, 8° C. (content by LCMSMS) (day 390): 3.47 µg/mL | Stability in AB White, 8° C. (content by LCMSMS) (day 420): 3.49 µg/mL | Stability in AB White, 8° C. (content by LCMSMS) (day 450): 3.44 µg/mL | Stability in AB White, 8° C. (content by LCMSMS) (day 480): 3.44 µg/mL | Stability in AB White, 8° C. (content by LCMSMS) (day 510): 3.34 µg/mL | Stability in AB White, 8° C. (content by LCMSMS) (day 540): 3.32 µg/mL | Stability in AB White, 8° C. (content by LCMSMS) (day 570): 3.30 µg/mL | Stability in AB White, 21-25° C. (content by LCMSMS) (day 0): 3.6 µg/mL | Stability in AB White, 21-25° C. (content by LCMSMS) (day 1): 3.48 µg/mL | Stability in AB White, 21-25° C. (content by LCMSMS) (day 2): 3.58 µg/mL | Stability in AB White, 21-25° C. (content by LCMSMS) (day 3): 3.54 µg/mL | Stability in AB White, 21-25° C. (content by LCMSMS) (day 5): 3.55 µg/mL | Stability in AB White, 21-25° C. (content by LCMSMS) (day 8): 3.63 µg/mL | Stability in AB White, 21-25° C. (content by LCMSMS) (day 9): 3.55 µg/mL | Stability in AB White, 21-25° C. (content by LCMSMS) (day 10): 3.55 µg/mL | Stability in AB White, 21-25° C. (content by LCMSMS) (day 11): 3.59 µg/mL | Stability in AB White, 21-25° C. (content by LCMSMS) (day 12): 3.47 µg/mL | Stability in AB White, 21-25° C. (content by LCMSMS) (day 15): 3.48 µg/mL | Stability in AB White, 21-25° C. (content by LCMSMS) (day 16): 3.60 µg/mL | Stability in AB White, 21-25° C. (content by LCMSMS) (day 17): 3.51 µg/mL | Stability in AB White, 21-25° C. (content by LCMSMS) (day 18): 3.50 µg/mL | Stability in AB White, 21-25° C. (content by LCMSMS) (day 19): 3.59 µg/mL | Stability in AB White, 21-25° C. (content by LCMSMS) (day 22): 3.52 µg/mL | Stability in AB White, 21-25° C. (content by LCMSMS) (day 23): 3.57 µg/mL | Stability in AB White, 21-25° C. (content by LCMSMS) (day 24): 3.63 µg/mL | Stability in AB White, 21-25° C. (content by LCMSMS) (day 25): 3.54 µg/mL | Stability in AB White, 21-25° C. (content by LCMSMS) (day 26): 3.55 µg/mL | Stability in AB White, 21-25° C. (content by LCMSMS) (day 29): 3.62 µg/mL | Stability in AB White, 21-25° C. (content by LCMSMS) (day 30): 3.48 µg/mL | Stability in AB White, 21-25° C. (content by LCMSMS) (day 60): 3.50 µg/mL | Stability in AB White, 21-25° C. (content by LCMSMS) (day 90): 3.47 µg/mL | Stability in AB White, 21-25° C. (content by LCMSMS) (day 120): 3.45 µg/mL | Stability in AB White, 21-25° C. (content by LCMSMS) (day 150): 3.54 µg/mL | Stability in AB White, 21-25° C. (content by LCMSMS) (day 180): 3.52 µg/mL | Stability in AB White, 21-25° C. (content by LCMSMS) (day 210): 3.40 µg/mL | Stability in AB White, 21-25° C. (content by LCMSMS) (day 240): 3.41 µg/mL | Stability in AB White, 21-25° C. (content by LCMSMS) (day 270): 3.56 µg/mL | Stability in AB White, 21-25° C. (content by LCMSMS) (day 300): 3.52 µg/mL | Stability in AB White, 21-25° C. (content by LCMSMS) (day 330): 3.55 µg/mL | Stability in AB White, 21-25° C. (content by LCMSMS) (day 360): 3.49 µg/mL | Stability in AB White, 21-25° C. (content by LCMSMS) (day 390): 3.40 µg/mL | Stability in AB White, 21-25° C. (content by LCMSMS) (day 420): 3.46 µg/mL | Stability in AB White, 21-25° C. (content by LCMSMS) (day 450): 3.47 µg/mL | Stability in AB White, 21-25° C. (content by LCMSMS) (day 480): 3.30 µg/mL | Stability in AB White, 21-25° C. (content by LCMSMS) (day 510): 3.32 µg/mL | Stability in AB White, 21-25° C. (content by LCMSMS) (day 540): 3.44 µg/mL | Stability in AB White, 21-25° C. (content by LCMSMS) (day 570): 3.30 µg/mL
